Our source for the IC50 values is patent US20250263400A1, “GCN2 MODULATOR COMPOUNDS” (Alesta Therapeutics BV, priority 2022, published 2025).

GCN2, sequence (Q9P2K8 whole entry, species assumed): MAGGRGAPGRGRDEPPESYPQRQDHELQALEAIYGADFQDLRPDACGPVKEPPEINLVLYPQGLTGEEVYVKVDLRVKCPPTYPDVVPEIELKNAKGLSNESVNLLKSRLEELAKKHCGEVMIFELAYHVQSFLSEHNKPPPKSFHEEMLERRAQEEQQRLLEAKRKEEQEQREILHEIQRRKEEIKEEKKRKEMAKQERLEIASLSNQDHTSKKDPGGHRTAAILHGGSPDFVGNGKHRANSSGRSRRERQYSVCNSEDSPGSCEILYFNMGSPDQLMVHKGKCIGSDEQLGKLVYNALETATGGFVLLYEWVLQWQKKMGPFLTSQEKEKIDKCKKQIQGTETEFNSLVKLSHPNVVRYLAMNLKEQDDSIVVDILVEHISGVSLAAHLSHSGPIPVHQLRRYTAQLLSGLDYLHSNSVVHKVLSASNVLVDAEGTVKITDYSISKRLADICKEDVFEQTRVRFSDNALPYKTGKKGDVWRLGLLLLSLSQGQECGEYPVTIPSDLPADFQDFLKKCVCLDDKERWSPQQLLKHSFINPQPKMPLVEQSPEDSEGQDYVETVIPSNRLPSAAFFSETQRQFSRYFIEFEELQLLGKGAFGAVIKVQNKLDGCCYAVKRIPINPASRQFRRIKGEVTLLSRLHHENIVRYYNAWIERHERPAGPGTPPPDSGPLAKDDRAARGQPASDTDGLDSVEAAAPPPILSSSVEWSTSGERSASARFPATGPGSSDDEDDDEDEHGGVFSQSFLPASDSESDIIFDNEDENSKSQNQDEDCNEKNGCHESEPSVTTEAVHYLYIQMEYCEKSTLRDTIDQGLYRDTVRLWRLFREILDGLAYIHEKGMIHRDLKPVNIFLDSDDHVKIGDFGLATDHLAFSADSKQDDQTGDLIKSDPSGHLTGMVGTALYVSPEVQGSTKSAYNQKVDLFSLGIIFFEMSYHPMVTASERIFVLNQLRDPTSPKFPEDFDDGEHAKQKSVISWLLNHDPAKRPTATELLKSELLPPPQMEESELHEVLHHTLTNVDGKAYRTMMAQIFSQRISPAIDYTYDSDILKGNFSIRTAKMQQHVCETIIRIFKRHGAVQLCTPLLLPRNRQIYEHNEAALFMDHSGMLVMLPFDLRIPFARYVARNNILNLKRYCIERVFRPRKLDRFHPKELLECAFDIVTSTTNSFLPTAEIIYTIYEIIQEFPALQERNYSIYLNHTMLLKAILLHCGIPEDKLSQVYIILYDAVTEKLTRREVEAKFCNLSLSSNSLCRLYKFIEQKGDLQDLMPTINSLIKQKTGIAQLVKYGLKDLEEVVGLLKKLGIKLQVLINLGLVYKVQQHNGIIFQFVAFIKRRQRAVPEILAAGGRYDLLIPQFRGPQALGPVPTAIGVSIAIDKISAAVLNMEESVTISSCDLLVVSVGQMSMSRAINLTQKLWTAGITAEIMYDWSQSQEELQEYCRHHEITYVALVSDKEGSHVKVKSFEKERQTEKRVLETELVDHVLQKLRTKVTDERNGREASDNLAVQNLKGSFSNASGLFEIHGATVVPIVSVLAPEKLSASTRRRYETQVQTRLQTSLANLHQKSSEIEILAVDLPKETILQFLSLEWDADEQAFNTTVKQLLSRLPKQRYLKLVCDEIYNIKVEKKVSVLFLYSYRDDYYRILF

The experiment has as its target GCN2 (Homo sapiens (Human), UniProt Q9P2K8). The experiment in a line: GCN2 enzyme assay. In kind it is biochemical. As to the method: For GCN2 enzyme assays, testing compounds were prepared at proper concentrations in DMSO solution. IC50 values were calculated from a remaining activity using read conversion ratio.
Broadly, the IC50 is the point on the concentration scale where inhibition reaches its midpoint. The low end stands for greater potency, the high end for weaker potency. On to `CCc1cc(-c2c(F)ccc(NS(=O)(=O)c3cc(Cl)cnc3OC)c2F)cc2cnc(N[C@@H]3CC[C@@H](C(=O)NCCOC)C3)nc12` [Compound 54, (1R,3R)-3-((6-(3-((5-chloro-2-methoxypyridine)-3-sulfonamido)-2,6-difluorophenyl)-8-ethylquinazolin-2-yl)amino)-N-(2-methoxyethyl)cyclo-pentane-1-carboxamide], for which the IC50 came out at 34.3 nM. That is a double-digit nanomolar value.
`CCc1cc(-c2c(F)ccc(NS(=O)(=O)c3cc(Cl)cnc3OC)c2F)cc2cnc(N[C@H]3CC[C@H](N(C)C)CC3)nc12` [Compound 57, 5-chloro-N-(3-(2-(((1R,4R)-4-(dimethylamino)cy-clohexyl)amino)-8-ethylquinazolin-6-yl)-2,4-difluorophenyl)-2-methoxypyridine-3-sulfonamide] had an IC50 of 3.95 nM.
As for `COc1ncc(Cl)cc1S(=O)(=O)Nc1ccc(F)c(-c2ccc3nc(N[C@H]4CC[C@H](N(C)C)CC4)ncc3c2)c1F` [Compound 61, 5-chloro-N-(3-(2-(((1R,4R)-4-(dimethylamino)cy-clohexyl)amino)quinazolin-6-yl)-2,4-difluorophenyl)-2-methoxypyridine-3-sulfonamide], the figure is 2.35 nM.
In turn, `COc1ncc(Cl)cc1S(=O)(=O)Nc1ccc(F)c(-c2ccc3nc(N[C@H]4CC[C@H](N)CC4)ncc3c2)c1F` [Compound 62, N-(3-(2-(((1R,4R)-4-aminocyclohexyl)amino)quinazolin-6-yl)-2,4-difluorophenyl)-5-chloro-2-methoxypyridine-3-sulfonamide] came in with an IC50 of 1.64 nM.
As for `CCc1cc(-c2c(F)ccc(NS(=O)(=O)c3ccccc3Cl)c2F)cc2cnc(N[C@H]3CC[C@H](N(C)C)CC3)nc12` [Compound 64, 2-chloro-N-(3-(2-(((1R,4R)-4-(dimethylamino)cy-clohexyl)amino)-8-ethylquinazolin-6-yl)-2,4-difluorophenyl)ben-zenesulfonamide], the figure is 26.8 nM; as for `CCc1cc(-c2c(F)ccc(NS(=O)(=O)c3ccccc3Cl)c2F)cc2cnc(N[C@H]3CC[C@H](NC)CC3)nc12` [Compound 65, 2-chloro-N-(3-(8-ethyl-2-(((1R,4R)-4-(methylamino)cyclo-hexyl)amino)quina-zolin-6-yl)-2,4-difluorophenyl)ben-zenesulfonamide], 43.7 nM.
For the compound `CN[C@H]1CC[C@H](Nc2ncc3cc(-c4c(F)ccc(NS(=O)(=O)c5ccccc5Cl)c4F)ccc3n2)CC1` [Compound 66, 2-chloro-N-(2,4-difluoro-3-(2-(((1R,4R)-4-(methylamino)cyclo-hexyl)amino)quina-zolin-6-yl)phenyl)benzene-sulfonamide], the IC50 stood at 63.2 nM. This IC50 and that of the compound before are within 1.5-fold of each other.
As for `CCc1cc(-c2c(F)ccc(NS(=O)(=O)c3ccccc3Cl)c2F)cc2cnc(N[C@H]3CC[C@H](N)CC3)nc12` [Compound 68, N-(3-(2-(((1R,4R)-4-aminocyclohexyl)amino)-8-ethylquinazolin-6-yl)-2,4-difluorophenyl)-2-chlorobenzenesulfon-amide], the figure is 39.8 nM.
Then `CN(C)[C@H]1CC[C@H](Nc2ncc3cc(-c4c(F)ccc(NS(=O)(=O)c5ccccc5Cl)c4F)ccc3n2)CC1` [Compound 70, 2-chloro-N-(3-(2-(((1R,4R)-4-(dimethylamino)cy-clohexyl)amino)quinazolin-6-yl)-2,4-difluorophenyl)ben-zenesulfonamide], with 81.2 nM; and `N[C@H]1CC[C@H](Nc2ncc3cc(-c4c(F)ccc(NS(=O)(=O)c5ccccc5Cl)c4F)ccc3n2)CC1` [Compound 71, N-(3-(2-(((1R,4R)-4-aminocyclohexyl)amino)quinazolin-6-yl)-2,4-difluorophenyl)-2-chlorobenzenesulfon-amide 2,2,2-trifluoroacetate], with 123 nM.
`Nc1ncc2cc(-c3c(Cl)cnc(NS(=O)(=O)c4ccccc4Cl)c3Cl)ccc2n1` [Compound 73, N-(4-(2-aminoquinazolin-6-yl)-3,5-dichloropyridin-2-yl)-2-chlorobenzenesulfon-amide] displayed an IC50 of 19.4 nM.
Turning to `Nc1ncc2cc(-c3c(F)cnc(NS(=O)(=O)c4ccccc4Cl)c3F)ccc2n1` [Compound 75, N-(4-(2-aminoquinazolin-6-yl)-3,5-difluoropyridin-2-yl)-2-chlorobenzenesulfon-amide], the IC50 is 367 nM.
